Assay results: PubChem BioAssay AID2060605 (Molecular Pharmacology Branch, DTP, NCI, 2025)
Values joined by “and” are separate entries in the source; they are usually repeats but may differ in a detail not shown here. Identical values can stand only once.

Test system: 947758-054-R-J2-PDC spheroid growth, percent test/control
Test: Anticancer human tumor 947758-054-R-J2-PDC patient-derived colon adenocarcinoma cell line growth inhibition [CLK]
Conditions: spheroids with HUVEC and MSC; for viability, T/C: stronger effect = lower value
Procedure, shortened: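 Patient-derived tumor cells grown as complex spheroids with HUVEC endothelial cells and mesenchymal stem cells, treated with drug combinations. Concentrations descend in half-log steps from near clinical Cmax, or from 10 microM if Cmax unknown.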

[1] = curve of first compound, second compound 0.0316 µM
[2] = curve of first compound, second compound 0.1 µM
[3] = curve of first compound, second compound 0.316 µM
[4] = curve of first compound, second compound 1 µM
[5] = curve of first compound, second compound 3.16 µM
[6] = curve of first compound, second compound 10 µM
[7] = second compound 0.0316 µM, first compound 0.00316 µM
[8] = second compound 0.0316 µM, first compound 0.01 µM
[9] = second compound 0.0316 µM, first compound 0.0316 µM
[10] = second compound 0.0316 µM, first compound 0.1 µM
[11] = second compound 0.0316 µM, first compound 0.316 µM
[12] = second compound 0.0316 µM, first compound 1 µM
[13] = second compound 0.1 µM, first compound 0.00316 µM
[14] = second compound 0.1 µM, first compound 0.01 µM
[15] = second compound 0.1 µM, first compound 0.0316 µM
[16] = second compound 0.1 µM, first compound 0.1 µM
[17] = second compound 0.1 µM, first compound 0.316 µM
[18] = second compound 0.1 µM, first compound 1 µM
[19] = second compound 0.316 µM, first compound 0.00316 µM
[20] = second compound 0.316 µM, first compound 0.01 µM
[21] = second compound 0.316 µM, first compound 0.0316 µM
[22] = second compound 0.316 µM, first compound 0.1 µM
[23] = second compound 0.316 µM, first compound 0.316 µM
[24] = second compound 0.316 µM, first compound 1 µM
[25] = second compound 1 µM, first compound 0.00316 µM
[26] = second compound 1 µM, first compound 0.01 µM
[27] = second compound 1 µM, first compound 0.0316 µM
[28] = second compound 1 µM, first compound 0.1 µM
[29] = second compound 1 µM, first compound 0.316 µM
[30] = second compound 1 µM, first compound 1 µM
[31] = second compound 3.16 µM, first compound 0.00316 µM
[32] = second compound 3.16 µM, first compound 0.01 µM
[33] = second compound 3.16 µM, first compound 0.0316 µM
[34] = second compound 3.16 µM, first compound 0.1 µM
[35] = second compound 3.16 µM, first compound 0.316 µM
[36] = second compound 3.16 µM, first compound 1 µM
[37] = second compound 10 µM, first compound 0.00316 µM
[38] = second compound 10 µM, first compound 0.01 µM
[39] = second compound 10 µM, first compound 0.0316 µM
[40] = second compound 10 µM, first compound 0.1 µM
[41] = second compound 10 µM, first compound 0.316 µM
[42] = second compound 10 µM, first compound 1 µM
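Further: spheroids exposed to compounds for one week before readout.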
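Wherever viability, T/C is given: 100% = DMSO vehicle control wells.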

In the case of CCN1CCN(Cc2ccc(Nc3ncc(F)c(-c4cc(F)c5nc(C)n(C(C)C)c5c4)n3)nc2)CC1 + CN1CCN(c2cc(C(=O)Nc3cc4cc(-c5cnn(C)c5)ccc4cn3)ccn2)CC1, the IC50 [1] is reported as > 1000 nM, the IC50 [2] is reported as 461 nM and the IC50 [3] is reported as < 3.16 nM. The IC50 [4] was < 3.16 nM, the IC50 [5] was < 3.16 nM and the IC50 [6] was < 3.16 nM. For the same molecule, the viability, T/C [7] was 145%, the viability, T/C [8] was 133% and the viability, T/C [9] was 176%. For the same molecule, the viability, T/C [10] was 245%, the viability, T/C [11] was 98.2% and the viability, T/C [12] was 46.5%. The viability, T/C [13] was 134%, the viability, T/C [14] was 141% and the viability, T/C [15] was 105%. The viability, T/C [16] was 108%, the viability, T/C [17] was 52.7% and the viability, T/C [18] was 32.8%. The viability, T/C [19] was 4.74%, the viability, T/C [20] was 7.5% and the viability, T/C [21] was 5.93%. For the same molecule, the viability, T/C [22] was 9.21%, the viability, T/C [23] was 14.7% and the viability, T/C [24] was 13.2%. The viability, T/C [25] was 0.18%, the viability, T/C [26] was 2.83% and the viability, T/C [27] was 0.19%. For the same molecule, the viability, T/C [28] was 0.19%, the viability, T/C [29] was 0.18% and the viability, T/C [30] was 2.66%. For the same molecule, the viability, T/C [31] was 0.83%, the viability, T/C [32] was 0.69% and the viability, T/C [33] was 0.21%. For the same molecule, the viability, T/C [34] was 0.28%, the viability, T/C [35] was 2.63% and the viability, T/C [36] was 3.69%. It also gave a viability, T/C [37] of 0.27%, a viability, T/C [38] of 1.7% and a viability, T/C [39] of 0.31%. It also gave a viability, T/C [40] of 0.4%, a viability, T/C [41] of 0.75% and a viability, T/C [42] of 2.67%.
In the case of CC(=O)O[C@H]1C(=O)[C@@]2(C)[C@H]([C@H](OC(=O)c3ccccc3)[C@]3(O)C[C@H](OC(=O)[C@H](O)[C@@H](NC(=O)c4ccccc4)c4ccccc4)C(C)=C1C3(C)C)[C@]1(OC(C)=O)CO[C@@H]1C[C@@H]2O, the viability, T/C (compound 0.0316 µM) is reported as 7.6% and 8.82%, the viability, T/C (compound 0.1 µM) is reported as 6.29% and 6.22% and the viability, T/C (compound 0.316 µM) is reported as 5.41% and 6.88%. For the same molecule, the viability, T/C (compound 1 µM) was 5.07% and 6.19%, the viability, T/C (compound 3.16 µM) was 6.6% and 8.41% and the viability, T/C (compound 10 µM) was 11.7% and 13.7%. For the same molecule, the IC50 (curve of compound) was < 31.6 nM.
With COc1c(OCCCN2CCOCC2)ccc2c3n(c(=NC(=O)c4cnc(N)nc4)nc12)CCN3 the viability, T/C (compound 0.00316 µM) was 107% and 111%, the viability, T/C (compound 0.01 µM) was 80.8% and 104% and the viability, T/C (compound 0.0316 µM) was 111% and 105%. For the same molecule, the viability, T/C (compound 0.1 µM) was 90.1% and 72%, the viability, T/C (compound 0.316 µM) was 38.9% and 41.3% and the viability, T/C (compound 1 µM) was 23.1% and 22.7%. For the same molecule, the IC50 (curve of compound) was 246 nM and 224 nM.
For COc1ccc([C@@H](O)c2cc(-c3ncnc4cc(N5CCOCC5)ccc34)c(F)cc2Cl)nn1 + CN1CCN(c2cc(C(=O)Nc3cc4cc(-c5cnn(C)c5)ccc4cn3)ccn2)CC1, the IC50 [1] was > 10000 nM, the IC50 [2] was 4240 nM and the IC50 [3] was < 31.6 nM. For the same molecule, the IC50 [4] was < 31.6 nM, the IC50 [5] was < 31.6 nM and the IC50 [6] was < 31.6 nM. For the same molecule, the viability, T/C [9] was 126%, the viability, T/C [10] was 134% and the viability, T/C [11] was 157%. For the same molecule, the viability, T/C [12] was 163%, the viability, T/C (second compound 0.0316 µM, first compound 3.16 µM) was 165% and the viability, T/C (second compound 0.0316 µM, first compound 10 µM) was 64%. For the same molecule, the viability, T/C [15] was 119%, the viability, T/C [16] was 137% and the viability, T/C [17] was 111%. For the same molecule, the viability, T/C [18] was 92.1%, the viability, T/C (second compound 0.1 µM, first compound 3.16 µM) was 59.8% and the viability, T/C (second compound 0.1 µM, first compound 10 µM) was 25.2%. For the same molecule, the viability, T/C [21] was 1.95%, the viability, T/C [22] was 5% and the viability, T/C [23] was 1.88%. The viability, T/C [24] was 2.42%, the viability, T/C (second compound 0.316 µM, first compound 3.16 µM) was 2.05% and the viability, T/C (second compound 0.316 µM, first compound 10 µM) was 1.12%. It also gave a viability, T/C [27] of 0.11%, a viability, T/C [28] of 1.62% and a viability, T/C [29] of 0.17%. For the same molecule, the viability, T/C [30] was 0.08%, the viability, T/C (second compound 1 µM, first compound 3.16 µM) was 1.67% and the viability, T/C (second compound 1 µM, first compound 10 µM) was 0.46%. The viability, T/C [33] was 0.13%, the viability, T/C [34] was 1.34% and the viability, T/C [35] was 0.63%. For the same molecule, the viability, T/C [36] was 0.14%, the viability, T/C (second compound 3.16 µM, first compound 3.16 µM) was 0.18% and the viability, T/C (second compound 3.16 µM, first compound 10 µM) was 0.3%. The viability, T/C [39] was 0.26%, the viability, T/C [40] was 0.42% and the viability, T/C [41] was 0.26%. The viability, T/C [42] was 0.21%, the viability, T/C (second compound 10 µM, first compound 3.16 µM) was 0.3% and the viability, T/C (second compound 10 µM, first compound 10 µM) was 0.88%.
For NC(=O)C(=Cn1cnc(-c2cc(C(F)(F)F)cc(C(F)(F)F)c2)n1)c1cncnc1, the viability, T/C (compound 0.00949 µM) was 101% and 94.5%, the viability, T/C (compound 0.03 µM) was 91% and 92.6% and the viability, T/C (compound 0.0949 µM) was 59.9% and 62.1%. The viability, T/C (compound 0.3 µM) was 28.5% and 28.9%, the viability, T/C (compound 0.949 µM) was 10.5% and 10% and the viability, T/C (compound 3 µM) was 2.27% and 3.82%. For the same molecule, the IC50 (curve of compound) was 140 nM and 149 nM.
CCc1c2c(nc3ccc(O)cc13)-c1cc3c(c(=O)n1C2)COC(=O)[C@]3(O)CC was tested, and the viability, T/C (compound 0.00316 µM) was 120% and 84.1%, the viability, T/C (compound 0.01 µM) was 34.2% and 32% and the viability, T/C (compound 0.0316 µM) was 23.7% and 20.8%. For the same molecule, the viability, T/C (compound 0.1 µM) was 18.7% and 19%, the viability, T/C (compound 0.316 µM) was 8.36% and 8.83% and the viability, T/C (compound 1 µM) was 3.07% and 3.43%. For the same molecule, the IC50 (curve of compound) was 8.48 nM and 7.07 nM.
For CCc1c2c(nc3ccc(O)cc13)-c1cc3c(c(=O)n1C2)COC(=O)[C@]3(O)CC + CNC(=O)c1ccc(Nc2nc(OC3CCCC3)c3c(-c4ccc5nc(C)oc5c4)c[nH]c3n2)c(OC)c1, the IC50 [1] was < 3.16 nM, the IC50 [2] was 4.57 nM and the IC50 [3] was < 3.16 nM. For the same molecule, the IC50 [4] was < 3.16 nM, the IC50 [5] was < 3.16 nM and the IC50 [6] was < 3.16 nM. The viability, T/C [7] was 45.2%, the viability, T/C [8] was 30.2% and the viability, T/C [9] was 23.5%. For the same molecule, the viability, T/C [10] was 17.9%, the viability, T/C [11] was 8.37% and the viability, T/C [12] was 1.73%. The viability, T/C [13] was 59.9%, the viability, T/C [14] was 28.5% and the viability, T/C [15] was 18.2%. The viability, T/C [16] was 16.5%, the viability, T/C [17] was 8.07% and the viability, T/C [18] was 3%. For the same molecule, the viability, T/C [19] was 34.3%, the viability, T/C [20] was 29.1% and the viability, T/C [21] was 16.8%. It also gave a viability, T/C [22] of 13.8%, a viability, T/C [23] of 6.27% and a viability, T/C [24] of 1.02%. It also gave a viability, T/C [25] of 34%, a viability, T/C [26] of 20.6% and a viability, T/C [27] of 10.7%. It also gave a viability, T/C [28] of 8.46%, a viability, T/C [29] of 2.97% and a viability, T/C [30] of 0.31%. It also gave a viability, T/C [31] of 31.6%, a viability, T/C [32] of 16.2% and a viability, T/C [33] of 12.2%. The viability, T/C [34] was 6.75%, the viability, T/C [35] was 4.2% and the viability, T/C [36] was 0.54%. For the same molecule, the viability, T/C [37] was 29.3%, the viability, T/C [38] was 19.5% and the viability, T/C [39] was 11.5%. For the same molecule, the viability, T/C [40] was 5.96%, the viability, T/C [41] was 2.11% and the viability, T/C [42] was 0.68%.
